In patent US20260125421A1, “ANTIVIRAL COMPOUNDS” (Hoffmann-La Roche Inc., priority 2022, published 2026):

Columns and labels:
Experiment in all cases: biochemical
SARS-CoV-2 3CL^pro = target: T1, SARS-CoV-2 3CL^pro (Severe acute respiratory syndrome coronavirus 2, UniProt P0DTD1)
T1 construct: […]; made in house; host or cells: Escherichia coli

HCoV-229E 3CL^pro = target: T2, HCoV-229E 3CL^pro (Human coronavirus 229E, UniProt P0C6X1)
T2 construct: […]; made in house; host or cells: E. coli BL21 (DE3)
T2 sequence (P0C6X1 2966-3267): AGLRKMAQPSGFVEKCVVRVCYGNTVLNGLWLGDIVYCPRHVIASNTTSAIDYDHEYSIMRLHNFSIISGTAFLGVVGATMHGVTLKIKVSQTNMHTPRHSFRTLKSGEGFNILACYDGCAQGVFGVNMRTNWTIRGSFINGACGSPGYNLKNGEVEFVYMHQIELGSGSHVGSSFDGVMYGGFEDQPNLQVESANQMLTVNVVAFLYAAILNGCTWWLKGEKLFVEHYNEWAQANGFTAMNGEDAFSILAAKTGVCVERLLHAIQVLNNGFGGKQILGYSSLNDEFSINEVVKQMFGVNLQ

MERS-CoV 3CL^pro = MERS-CoV 3CL^pro (Middle East respiratory syndrome-related coronavirus, UniProt K9N7C7)
MERS-CoV 3CL^pro, sequence (K9N7C7 3248-3553): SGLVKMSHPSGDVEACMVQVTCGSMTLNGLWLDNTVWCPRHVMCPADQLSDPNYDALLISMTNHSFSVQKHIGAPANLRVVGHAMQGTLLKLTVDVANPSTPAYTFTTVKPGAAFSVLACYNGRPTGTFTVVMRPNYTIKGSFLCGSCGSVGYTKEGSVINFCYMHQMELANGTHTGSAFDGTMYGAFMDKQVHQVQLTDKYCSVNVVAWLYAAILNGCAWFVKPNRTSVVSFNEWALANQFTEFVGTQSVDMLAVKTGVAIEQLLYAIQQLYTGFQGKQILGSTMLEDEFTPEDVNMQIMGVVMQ

SARS-CoV 3CL^pro = SARS-CoV 3CL^pro (Severe acute respiratory syndrome coronavirus, UniProt P0C6X7)

| SMILES | IC50 (SARS-CoV-2 3CL^pro) [nM] | IC50 (HCoV-229E 3CL^pro) [nM] | IC50 (MERS-CoV 3CL^pro) [nM] | IC50 (SARS-CoV 3CL^pro) [nM] |
| --- | --- | --- | --- | --- |
| CC1(C)C[C@@H](CN(NC(=O)[C@@H]2[C@H]3CCC[C@H]3CN2C(=O)[C@@H](NC(=O)[C@H](F)Cl)C(C)(C)C)C(=O)[C@H](F)Cl)C(=O)N1 [Example 14, (2R)-N-[(1S)-1-[(3S,3aS,6aR)-3-[[[(2R)-2-chloro-2-fluoro-acetyl]-[[(3S)-5,5-dimethyl-2-oxo-pyrrolidin-3-yl]methyl]amino]carbamoyl]-3,3a,4,5,6,6a-hexahydro-1H-cyclopenta[c]pyrrole-2-carbonyl]-2,2-dimethyl-propyl]-2-chloro-2-fluoro-acetamide] | 9 | 1270 | 1240 | 9 |
| CC1(C)C[C@@H](CN(NC(=O)[C@@H]2[C@H]3CCC[C@H]3CN2C(=O)[C@@H](NC(=O)[C@@H](F)Cl)C(C)(C)C)C(=O)[C@H](F)Cl)C(=O)N1 [Example 15, (2S)-N-[(1S)-1-[(3S,3aS,6aR)-3-[[[(2R)-2-chloro-2-fluoro-acetyl]-[[(3S)-5,5-dimethyl-2-oxo-pyrrolidin-3-yl]methyl]amino]carbamoyl]-3,3a,4,5,6,6a-hexahydro-1H-cyclopenta[c]pyrrole-2-carbonyl]-2,2-dimethyl-propyl]-2-chloro-2-fluoro-acetamide] | 11 | 589 | 488 | 12 |
| CC1(C)C[C@@H](CN(NC(=O)[C@@H]2[C@H]3CCC[C@H]3CN2C(=O)[C@@H](NC(=O)[C@H](F)Cl)C(C)(C)C)C(=O)[C@@H](F)Cl)C(=O)N1 [Example 16] | 22 | > 10000 | 6160 | 33 |
| CC1(C)C[C@@H](CN(NC(=O)[C@@H]2[C@H]3CCC[C@H]3CN2C(=O)[C@@H](NC(=O)[C@@H](F)Cl)C(C)(C)C)C(=O)[C@@H](F)Cl)C(=O)N1 [Example 17] | 16 | 4260 | 1870 | 19 |
| CCC(CC)[C@H](NC(=O)C(F)F)C(=O)N1C[C@@H]2CCC[C@@H]2[C@H]1C(=O)NN(C[C@H]1CC(C)(C)NC1=O)C(=O)[C@@H](F)Cl [Example 18, N-[(1S)-1-[(3S,3aS,6aR)-3-[[[(2S)-2-chloro-2-fluoro-acetyl]-[[(3R)-5,5-dimethyl-2-oxo-pyrrolidin-3-yl]methyl]amino]carbamoyl]-3,3a,4,5,6,6a-hexahydro-1H-cyclopenta[c]pyrrole-2-carbonyl]-2-ethyl-butyl]-2,2-difluoro-acetamide] | 12 | 332 | 345 | 23 |
| CC[C@H](C)[C@H](NC(=O)C1(F)CC1)C(=O)N1C[C@H]2[C@@H]([C@H]1C(=O)NN(C[C@H]1CC(C)(C)NC1=O)C(=O)[C@@H](F)Cl)C2(C)C [Example 19, N-[(1S,2S)-1-[(1R,2S,5S)-2-[[[(2S)-2-chloro-2-fluoro-acetyl]-[[(3R)-5,5-dimethyl-2-oxo-pyrrolidin-3-yl]methyl]amino]carbamoyl]-6,6-dimethyl-3-azabicyclo[3.1.0]hexane-3-carbonyl]-2-methyl-butyl]-1-fluoro-cyclopropanecarboxamide] | 19 | 834 | 553 | 32 |
| CC1(C)C[C@@H](CN(NC(=O)[C@@H]2[C@@H]3[C@H](CN2C(=O)[C@@H](NC(=O)[C@H](F)Cl)C(C)(C)C)C3(C)C)C(=O)[C@H](F)Cl)C(=O)N1 [Example 20] | 24 | 2020 | 1070 | 32 |
| CC1(C)C[C@@H](CN(NC(=O)[C@@H]2[C@@H]3[C@H](CN2C(=O)[C@@H](NC(=O)[C@@H]2CC2(F)F)C(C)(C)C)C3(C)C)C(=O)[C@H](F)Cl)C(=O)N1 [Example 21, (1S)-N-[(1S)-1-[(1R,2S,5S)-2-[[[(2R)-2-chloro-2-fluoro-acetyl]-[[(3S)-5,5-dimethyl-2-oxo-pyrrolidin-3-yl]methyl]amino]carbamoyl]-6,6-dimethyl-3-azabicyclo[3.1.0]hexane-3-carbonyl]-2,2-dimethyl-propyl]-2,2-difluoro-cyclopropanecarboxamide] | 14 | 778 | 402 | 22 |
| CC1(C)C[C@@H](CN(NC(=O)[C@@H]2[C@@H]3[C@H](CN2C(=O)[C@@H](NC(=O)[C@@H](F)Cl)C(C)(C)C)C3(C)C)C(=O)[C@@H](F)Cl)C(=O)N1 [Example 22, (2S)-2-chloro-N-[(1S)-1-[(1R,2S,5S)-2-[[[(2S)-2-chloro-2-fluoro-acetyl]-[[(3S)-5,5-dimethyl-2-oxo-pyrrolidin-3-yl]methyl]amino]carbamoyl]-6,6-dimethyl-3-azabicyclo[3.1.0]hexane-3-carbonyl]-2,2-dimethyl-propyl]-2-fluoro-acetamide] | 31 | 3520 | 1870 | 48 |
| CC1(C)C[C@@H](CN(NC(=O)[C@@H]2[C@@H]3[C@H](CN2C(=O)[C@@H](NC(=O)[C@@H]2CC2(F)F)C(C)(C)C)C3(C)C)C(=O)[C@@H](F)Cl)C(=O)N1 [Example 23, (1S)-N-[(1S)-1-[(1R,2S,5S)-2-[[[(2S)-2-chloro-2-fluoro-acetyl]-[[(3S)-5,5-dimethyl-2-oxo-pyrrolidin-3-yl]methyl]amino]carbamoyl]-6,6-dimethyl-3-azabicyclo[3.1.0]hexane-3-carbonyl]-2,2-dimethyl-propyl]-2,2-difluoro-cyclopropanecarboxamide] | 54 | 5430 | 2080 | 85 |
| CC1(C)C[C@H](CN(NC(=O)[C@@H]2[C@@H]3[C@H](CN2C(=O)[C@@H](NC(=O)[C@@H]2CC2(F)F)C(C)(C)C)C3(C)C)C(=O)[C@H](F)Cl)C(=O)N1 [Example 24, (1S)-N-[(1S)-1-[(1R,2S,5S)-2-[[[(2R)-2-chloro-2-fluoro-acetyl]-[[(3R)-5,5-dimethyl-2-oxo-pyrrolidin-3-yl]methyl]amino]carbamoyl]-6,6-dimethyl-3-azabicyclo[3.1.0]hexane-3-carbonyl]-2,2-dimethyl-propyl]-2,2-difluoro-cyclopropanecarboxamide] | 87 | 2250 | 1400 | 177 |
| CC(C)(C)[C@H](NC(=O)[C@@H]1CC1(F)F)C(=O)N1C[C@@H]2CCC[C@@H]2[C@H]1C(=O)NN(C[C@@H]1CC2(CC2)NC1=O)C(=O)[C@H](F)Cl [Example 25] | 12 | 40 | 62 | 14 |
| CC(C)(C)[C@H](NC(=O)[C@@H]1CC1(F)F)C(=O)N1C[C@@H]2CCC[C@@H]2[C@H]1C(=O)NN(C[C@H]1CC2(CC2)NC1=O)C(=O)[C@H](F)Cl [Example 26, (1S)-N-[(1S)-1-[(3S,3aS,6aR)-3-[[[(2R)-2-chloro-2-fluoro-acetyl]-[[(6R)-5-oxo-4-azaspiro[2.4]heptan-6-yl]methyl]amino]carbamoyl]-3,3a,4,5,6,6a-hexahydro-1H-cyclopenta[c]pyrrole-2-carbonyl]-2,2-dimethyl-propyl]-2,2-difluoro-cyclopropanecarboxamide] | 12 | 45 | 111 | 11 |
| C[C@H]1C[C@@H](CN(NC(=O)[C@@H]2[C@H]3CCC[C@H]3CN2C(=O)[C@@H](NC(=O)[C@@H]2CC2(F)F)C(C)(C)C)C(=O)[C@H](F)Cl)C(=O)N1 [Example 27, (1S)-N-[(1S)-1-[(3S,3aS,6aR)-3-[[[(2R)-2-chloro-2-fluoro-acetyl]-[[(3S,5S)-5-methyl-2-oxo-pyrrolidin-3-yl]methyl]amino]carbamoyl]-3,3a,4,5,6,6a-hexahydro-1H-cyclopenta[c]pyrrole-2-carbonyl]-2,2-dimethyl-propyl]-2,2-difluoro-cyclopropanecarboxamide] | 6 | 30 | 63 | 10 |
| C[C@H]1C[C@H](CN(NC(=O)[C@@H]2[C@H]3CCC[C@H]3CN2C(=O)[C@@H](NC(=O)[C@@H]2CC2(F)F)C(C)(C)C)C(=O)[C@H](F)Cl)C(=O)N1 [Example 28, (1S)-N-[(1S)-1-[(3S,3aS,6aR)-3-[[[(2R)-2-chloro-2-fluoro-acetyl]-[[(3R,5S)-5-methyl-2-oxo-pyrrolidin-3-yl]methyl]amino]carbamoyl]-3,3a,4,5,6,6a-hexahydro-1H-cyclopenta[c]pyrrole-2-carbonyl]-2,2-dimethyl-propyl]-2,2-difluoro-cyclopropanecarboxamide] | 30 | 492 | 1160 | 74 |
| C[C@@H]1C[C@H](CN(NC(=O)[C@@H]2[C@H]3CCC[C@H]3CN2C(=O)[C@@H](NC(=O)[C@@H]2CC2(F)F)C(C)(C)C)C(=O)[C@@H](F)Cl)C(=O)N1 [Example 29, (1S)-N-[(1S)-1-[(3S,3aS,6aR)-3-[[[(2S)-2-chloro-2-fluoro-acetyl]-[[(3R,5R)-5-methyl-2-oxo-pyrrolidin-3-yl]methyl]amino]carbamoyl]-3,3a,4,5,6,6a-hexahydro-1H-cyclopenta[c]pyrrole-2-carbonyl]-2,2-dimethyl-propyl]-2,2-difluoro-cyclopropanecarboxamide] | 36 | 233 | 344 | 93 |
| C[C@@H]1C[C@@H](CN(NC(=O)[C@@H]2[C@H]3CCC[C@H]3CN2C(=O)[C@@H](NC(=O)[C@@H]2CC2(F)F)C(C)(C)C)C(=O)[C@@H](F)Cl)C(=O)N1 [Example 30, (1S)-N-[(1S)-1-[(3S,3aS,6aR)-3-[[[(2S)-2-chloro-2-fluoro-acetyl]-[[(3S,5R)-5-methyl-2-oxo-pyrrolidin-3-yl]methyl]amino]carbamoyl]-3,3a,4,5,6,6a-hexahydro-1H-cyclopenta[c]pyrrole-2-carbonyl]-2,2-dimethyl-propyl]-2,2-difluoro-cyclopropanecarboxamide] | 8 | 66 | 91 | 11 |
